First: O=C(CCC1(C(=O)O)CCCC1)OCc1ccc([N+](=O)[O-])cc1
Second: COC(=O)C(C(=O)OC)c1cc([N+](=O)[O-])ccc1C(=O)O
The melting point of the first is lower: 78 to 80 °C for the first, 153 °C for the second.

First: COc1ccc(C(O)CCS(=O)(=O)c2ccc(S(N)(=O)=O)s2)cc1 (stereo unspecified)
Second: CN(c1ccc(OCCCCBr)cc1)S(=O)(=O)c1ccc(C(F)(F)F)cc1
The melting point of the first is higher: 129 to 130 °C for the first, 91 to 92 °C for the second.

First: Cc1nc(Oc2ccc(Cl)cc2)c2ccccc2c1CC(=O)O
Second: O=C(O)COc1ccc(-c2c3ccccc3c(Br)c3sc4ccccc4c23)cc1
The melting point of the first is lower: 192 to 195 °C for the first, 198 to 200 °C for the second.

Compared with Oc1ccc(CCc2ccc(O)cc2)cc1, CCc1ccc(C#Cc2ccc(Br)cc2)cc1 is lower in melting point: 199 to 200 °C for the first, 117 °C for the second.

Compared with COc1cccc2c(=O)c(C(C)=O)c[nH]c12, CCOC(=O)C(C(=O)OCC)[C@@H](c1ccccc1)c1c[nH]c2cccc(OC)c12 is lower in melting point: 287 to 289 °C for the first, 134 to 136 °C for the second.

First: O=C(C=Cc1ccccc1)NN1CC(=O)NC1=O
Second: O=S(=O)(CC=Cc1ccccc1)CCCO
The melting point of the first is higher: 276 to 278 °C for the first, 86 °C for the second.

First: CCOC(=O)c1ccc(COc2cccc3occc23)cc1
Second: CCOC(=O)c1csc2cc(Oc3ccnc(N)n3)ccc12
The melting point of the first is lower: 70 to 72 °C for the first, 144 to 145 °C for the second.

Compared with OC[C@@H](O)CCc1ccc2ccccc2c1O, O=C(O)CCCCCCc1cc(-c2ccccc2)c2ccccc2n1 is lower in melting point: 105 to 108 °C for the first, 39 °C for the second.

First: Cc1ccc(C)c(Oc2ccc(C#N)cc2S(=O)(=O)N2CCNCC2)c1
Second: COc1cc(C)c(C)cc1NC(=O)N1CCN(c2cc(-c3ccccc3)ccc2OC)CC1
The melting point of the first is lower: 60 to 72 °C for the first, 139 to 140 °C for the second.

Compared with O=C(O)CCc1oc2cc(O)ccc2c(=O)c1C(=O)O, Nc1nc2[nH]c(CCCc3cc(C(=O)N[C@@H](CCC(=O)O)C(=O)O)cs3)cc2c(=O)[nH]1 is lower in melting point: 218 to 219 °C for the first, 191 to 192 °C for the second.

First: CCCc1cccnc1N(CC)C1CCN(C(=O)c2ccc[nH]2)CC1
Second: c1ccc2c(c1)OCC(CCc1ncc[nH]1)O2 (stereo unspecified)
The melting point of the first is lower: 115 to 116 °C for the first, 159 to 160 °C for the second.

First: C[C@H](NC(C#N)CCc1ccccc1)C(=O)O (stereo partly specified)
Second: CC(=O)C(C#N)c1cccc(Br)c1 (stereo unspecified)
The melting point of the first is higher: 115 °C for the first, 96 to 100 °C for the second.

First: CCCCCCCCCCc1csc2c1sc1c2sc2c3scc(CCCCCCCCCC)c3sc21
Second: CCCCCCCCCCCCCCOc1cccc(C(=O)Cl)c1
The melting point of the first is higher: 108 °C for the first, 26 to 27 °C for the second.

First: O=C(CC1CCCCCC1)Nc1cn(CCO)c2cccc(Cl)c12
Second: O=C(c1ccc2[nH]c3ccccc3c2c1)N1CCCCC1
The melting point of the first is lower: 79 to 83 °C for the first, 221 to 222 °C for the second.

First: COc1cc(Oc2cccc(C(F)(F)F)c2)nc(C(=O)NC=C(Cl)Cl)c1
Second: CCOCc1cnn2c(-c3cccc(C(F)(F)F)c3)ccnc12
The melting point of the first is higher: 123 to 125 °C for the first, 110 to 111 °C for the second.

First: CC(C)C[C@H](NC(=O)c1ccc2c(c1)Nc1ccccc1S2)C(=O)N[C@H]1CCOC1OC(=O)CC(C)(C)C (stereo partly specified)
Second: Cc1nc(-c2ccc3c(=O)n(CC(C)C)c(CNC(=O)OC(C)(C)C)c(-c4ccccc4)c3c2)sc1C(N)=O
The melting point of the first is lower: 111 to 113 °C for the first, 227 to 228 °C for the second.

Compared with CCC[C@H](NC(=O)[C@H](C)N)C(=O)N[C@@H](C)P(=O)(O)O, CCC[C@@H]([C@@H](CC(C)C)C(=O)N[C@@H](CCCNCN=N[N+](=O)[O-])C(=O)Nc1nccs1)N(O)C=O is lower in melting point: 268 to 270 °C for the first, 130 to 136 °C for the second.

First: Nc1ccc(-c2cc3c(N4CCCc5ccccc54)ncnc3[nH]2)cc1
Second: N#Cc1c(N2CCCC2)cc(-c2ccccc2)c2c1Cc1ccccc1-2
The melting point of the first is higher: 243 to 245 °C for the first, 210 to 212 °C for the second.

First: CCOC(=O)c1cc(NC(=O)c2ccc(Cl)cc2Cl)ccc1Oc1cncc(Cl)c1
Second: COc1ccc(C(=O)Nc2ccc(F)c(F)c2)cc1NS(=O)(=O)c1cccc(N)c1
The melting point of the first is lower: 125 to 127 °C for the first, 212 to 214 °C for the second.

First: Nc1ncnc2c(C3OC(CO)C(O)C3O)[nH]nc12 (stereo unspecified)
Second: CC(=O)OCC1OC(n2ncc(C#N)n2)C(OC(C)=O)C1OC(C)=O (stereo unspecified)
The melting point of the first is higher: 141 to 142 °C for the first, 77 to 79 °C for the second.

Compared with O=c1c2ccccc2sc2c(O)ccc(Cl)c12, CC(C)(C)Sc1cccc(-c2nc(=O)c3ccccc3s2)n1 is lower in melting point: 260 to 265 °C for the first, 153 to 154 °C for the second.

Compared with COC(=O)c1nn(Cc2cccc(NC(=O)OC(C)(C)C)c2)c2c1CCc1cc(OCc3cncnc3)ccc1-2, COc1cccc([C@H]2O[C@H](CC(=O)Nc3cccc(CCCC(=O)O)c3)C(=O)N(CC(C)(C)CO)c3ccc(Cl)cc32)c1OC is lower in melting point: 221 to 222 °C for the first, 119 to 122 °C for the second.

Compared with COC(=O)/C=C/n1cnc2ccc(OC(C)C)cc2c1=O, COc1cc(C(C)C)ccc1C1(NC(N)=O)C(=O)c2ccccc2C1=O is higher in melting point: 156 to 158 °C for the first, 272 to 274 °C for the second.

Compared with CC(C)NC(=O)c1c(NC(=O)c2cc(C(F)(F)F)nn2-c2ncccc2Cl)c(Cl)cc2cn[nH]c12, CC(C)c1cccc(C(C)C)c1NC(=O)NCCN1CCN(CCSc2nc3ncccc3o2)CC1 is lower in melting point: 245 to 247 °C for the first, 175 to 176 °C for the second.

Compared with C=CCCCCCCCCNC(=O)NOCc1ccccc1, CCCCc1nc2c(N)nc3ccccc3c2n1CCCNC(=O)Nc1ccccc1 is higher in melting point: 53 to 55 °C for the first, 191 to 192 °C for the second.

Compared with COc1cc(C(C)C)ccc1C1(O)C(=O)c2ccc(N)c(N)c2C1=O (stereo unspecified), CC(C)C(C)(C(N)=O)N1C(=O)c2ccc3ccsc3c2C1=O (stereo unspecified) is lower in melting point: 272 to 274 °C for the first, 199 to 200 °C for the second.

CC1(C)CC(=NO)c2cc(F)ccc2O1 and CC1(C)C=C(c2ncccn2)c2cc(C#N)ccc2O1 fall in the same range of melting point: 108 to 110 °C for the first, 108 to 110 °C for the second.

Compared with c1cc2cc(CSc3nnc(-c4ccc5c(c4)CCO5)o3)ccc2o1, OCc1ccc2cc(-c3nnc(CSCCOc4ccccc4)o3)ccc2c1 is lower in melting point: 145 to 147 °C for the first, 132 to 133 °C for the second.

First: CC(C)(CNC=O)c1ccc(N)c([N+](=O)[O-])c1
Second: CCOC(=O)C(=O)Nc1c([N+](=O)[O-])cc(C#N)c2ccccc12
The melting point of the first is lower: 113 to 115 °C for the first, 178 °C for the second.

First: COc1ccc(CC(C#N)=CNc2ccccc2)c2ccccc12
Second: BrC(c1ccccc1)c1ccc2ccccc2c1 (stereo unspecified)
The melting point of the first is higher: 188 to 189 °C for the first, 89 to 90 °C for the second.

Compared with COc1cc(N)ccc1-c1cnc(C)s1, Cc1cc(C)cc(-c2nc(N)sc2-c2ccnc(NCc3ccccc3)c2)c1 is lower in melting point: 125 to 129 °C for the first, 99 to 102 °C for the second.

Compared with COc1ccc(-c2ncn(CCCCCCCC(=O)O)c2-c2ccc(OC)cc2)cc1, COC(=O)c1cc(S(=O)(=O)c2ccc(C)cc2)cc2c1OC(c1ccc(OC)cc1)(c1ccc(OC)cc1)O2 is lower in melting point: 142 to 143 °C for the first, 79 to 82 °C for the second.

Compared with CCOC(=O)Cn1cc2c(n1)CCN(C(=O)OC(C)(C)C)C2, CCC1CC2C3CCC4=CC(=O)CCC4C3CCC2(C)C1OC(=O)COC(C)=O (stereo unspecified) is higher in melting point: 90 to 91 °C for the first, 98 to 100 °C for the second.

First: O=C(O)CCCCCCCCCCCCCCCCC(=O)ON1C(=O)CCC1=O
Second: CC(=O)NCCCC(=O)c1ccc(Cl)cc1CCC(=O)NCC(=O)O
The melting point of the first is higher: 120 to 122 °C for the first, 88 to 89 °C for the second.

Compared with Cn1cc(C(=O)NCc2ccc(Cl)cc2)c(=O)c2cc(CCCO)cc(OCCO)c21, O=C(NCCO)c1cc(F)cc(-c2ccc(F)c3cc(Cc4cccc(C(F)(F)F)c4)sc23)c1 is lower in melting point: 175 to 179 °C for the first, 107 to 108 °C for the second.

Compared with O=C1CCCc2c1ccc(O)c2O, CC(=O)N1CCc2ccsc2C1=O is lower in melting point: 191 to 194 °C for the first, 92 °C for the second.

First: c1nc2cc3c(cc2[nH]1)OCO3
Second: O=c1[nH]cnc2c(CN[C@H](CO)[C@H](O)CO)c[nH]c12
The melting point of the first is lower: 155 to 156 °C for the first, 230 °C for the second.

Compared with NC(=O)N(O)Cc1ccc(Oc2ccccc2)s1, COC(=S)OC(C(=O)OC(c1ccccc1)c1ccccc1)c1ccccc1 (stereo unspecified) is lower in melting point: 114 to 116 °C for the first, 74 °C for the second.

First: CC(C)(C)c1cc(CCC2(CCc3cc(C(C)(C)C)c(O)c(C(C)(C)C)c3)NC(=O)NC2=O)cc(C(C)(C)C)c1O
Second: CCN1C(=O)C(OC(=O)C(C)(C)C)=C(c2c(C)cc(C)cc2C)C1=O
The melting point of the first is higher: 218 to 220 °C for the first, 91 °C for the second.

Compared with Cc1nc(-c2n[nH]c(Cc3ccccc3)n2)sc1C(=O)NCc1ccccc1, Cc1nc(-c2ccccc2)cc(-c2cccc([N+](=O)[O-])c2)c1C(=O)NCCN1CCOCC1 is lower in melting point: 235 to 237 °C for the first, 141 to 142 °C for the second.

Compared with CC(=O)NCCNC(=O)c1ccc(Cl)cc1, CC(=O)CC(=O)CC(=O)c1cc(S(=O)(=O)c2ccccc2)ccc1[N+](=O)[O-] is lower in melting point: 222 to 224 °C for the first, 143 to 145 °C for the second.

First: CC(=O)Nc1ccc(C(=O)N(CCN2CCC(C(=O)c3ccc(F)cc3)CC2)c2ccc(O)cc2)cc1
Second: O=C(Nc1ccccc1C(c1ccc(O)cc1)c1ccc(O)cc1)c1ccc([N+](=O)[O-])cc1
The melting point of the first is lower: 133 to 137 °C for the first, 258 to 259 °C for the second.

Compared with O=[N+]([O-])c1ccc(Sc2ccc(Cl)cc2)nc1, O=C1c2cc([N+](=O)[O-])ccc2-n2c1nc1ccccc1c2=O is higher in melting point: 134 to 136 °C for the first, 302 to 303 °C for the second.

First: Cc1ccnc(NC(N)=S)c1
Second: Nc1ccc(S(=O)(=O)CCO)cc1O
The melting point of the first is higher: 210 to 212 °C for the first, 115 to 117 °C for the second.

First: Cc1cc(C(C)C)c(S(C)(=O)=O)cc1C(=O)N=C(N)N
Second: Cc1c(F)c(F)c(C(=O)NC(C(C)C)C(C)C)c(F)c1F
The melting point of the first is higher: 220 to 223 °C for the first, 184 to 187 °C for the second.

First: CCc1cc(Oc2c(Cl)cc(C(F)(F)F)cc2Cl)n[nH]1
Second: CCc1ccc(/C=C/c2cc(OC)c(OC)c(OC)c2)cc1
The melting point of the first is higher: 118 to 121 °C for the first, 98 to 100 °C for the second.

First: Cn1nc(CCc2ccncc2)c2c(=O)n(-c3ccccc3)c3ncccc3c21
Second: COC(=O)C(Oc1ccc(OCc2ccccc2)cc1)c1ccc(Oc2ccc(Cl)cc2)cc1 (stereo unspecified)
The melting point of the first is higher: 285 to 286 °C for the first, 88 to 90 °C for the second.

Compared with O=C(NCC1CCN(c2cc3nc(C(=O)O)c(=O)[nH]c3cc2[N+](=O)[O-])C1)Nc1ccccc1 (stereo unspecified), CCCc1cc2c(NC(=S)N3Cc4ccccc4CC3CCO)cccc2cn1 (racemic) is lower in melting point: greater than 300 °C for the first, 175 °C for the second.

First: CSc1ccc2cc(Nc3ccc(O)cc3)ccc2c1
Second: N#CC(C#N)=CNc1ccc(C2=NNC(=O)CC2)cc1
The melting point of the first is lower: 127 to 128 °C for the first, 290 to 295 °C for the second.

First: CC1CCc2c(N3CCN(C)CC3)c(F)cc3c(=O)c(C(=O)O)cn1c23 (stereo unspecified)
Second: COC1=CC(=O)C2=C(C1=O)C1CCC2C1 (stereo unspecified)
The melting point of the first is higher: 262 to 263 °C for the first, 106 to 108 °C for the second.

With CC1CCc2nc(N)sc2C1 (stereo unspecified) the melting point was 98 to 100 °C.

Reference: a melting point compilation (Tetko et al.; mined from patent text by program, amines drawn as free bases though some values may be those of a salt)
